How the values were obtained:
[1] = tested on: polyclonal antibodies in mouse sera raised against original PCSK9 sequence (aa 153-162 or aa 153-165); assay: Competition ELISA: mimotope competes with the original PCSK9 sequence for binding of polyclonal antibodies in mouse sera; details: 20 μg peptide incubated with sera; irrelevant peptide = 0% competition
Description: FIGS. 2A and 2B show the ability of PCSK9 mimotopes to compete with the original PCSK9 sequence (aa 153-162 or aa 153-165) for binding polyclonal antibodies in mouse sera raised specifically against the latter.
All mimotopes are compared to the negative group (0% competition by an irrelevant peptide). As a positive control for each competition ELISA the original PCSK9 sequences were used (aa 153-162 or aa 153-165).
The graphs display the ability (in percent) of the mimotopes to compete with the original PCSK9 sequence (aa 153-162 or aa 153-165) for binding polyclonal antibodies raised against the latter.
20 μg of each indicated peptide was incubated with sera from mice injected with original PCSK9 sequence (aa 153-162 or aa 153-165: SEQ ID No. 2). Sera were then incubated on ELISA plates coated with the original PCSK9 sequence (aa 153-162 or aa 153-165: SEQ ID No. 2). Detection was performed with anti-mouse IgG antibodies, ABTS was used as a chromogenic substrate and optical density (OD) was measured at 405 nm.
Mimotopes diminishing >20% subsequent binding of the polyclonal antibodies from the sera to the original human PCSK9 epitope (aa 153-162 or 153-165: SEQ ID No. 3) coated on the ELISA plates were considered as competing mimotopes and as good candidates.

[2] = tested on: polyclonal antibodies specific for human PCSK9 aa 153-162 or aa 153-165; assay: Binding ELISA: mimotopes coated on plates, detected by mouse sera raised against the original PCSK9 sequence; details: mimotope coated at 1 μmol/mL; titer = serum dilution where 50% of ODmax is reached
Description: FIGS. 1A and 1B show detection of PCSK9 mimotopes sequences by mouse sera containing polyclonal antibodies specific for human PCSK9 aa 153-162 or aa 153-165
The graphs display median titers from all mimotopes compared to the irrelevant negative control. As a positive control the original human PCSK9 sequence is included: aa 153-162 or aa 153-165. Mimotopes with values over 1:50.000 are considered as good candidates.
Mimotopes were coated on ELISA plates at a concentration of 1 μmol/mL. After blocking unspecific binding (1% BSA in PBS) appropriate dilutions of sera from mice injected with the original human PCSK9 sequence aa 153-162 or aa 153-165 (SEQ ID No. 3) were added and incubated for approximately 1 hour. Subsequently, detection with anti-mouse IgG antibodies was performed. ABTS was used as substrate. OD measurements were performed at 405 nm and titers were defined as the dilution of the serum where 50% of the ODmax is reached.

Substance | % Competition compared to the related control group [1] [%] | Median Titer Binding ELISA (ODmax/2) [2]
41 (SIPWNLERIA; Artificial Sequence, Mimotope) [compound 41] | 80 | 189,000
34 (SIPWNLEAIT; Artificial Sequence, Mimotope) [compound 34] | 15 | 54,000
61 (SQPWNLERLT; Artificial Sequence, Mimotope) [compound 61] | 69 | 200,000
36 (SIPWNLERLT; Artificial Sequence, Mimotope) [compound 36] | 76 | 192,000
67 (SIPWSLERIQ; Artificial Sequence, Mimotope) [compound 67] | 44 | 223,000
27 (SIPWNYERIT; Artificial Sequence, Mimotope) [compound 27] | 76 | 115,000
6 (VIPWNLERIT; Artificial Sequence, Mimotope) [compound 6] | 51 | 12,000
43 (SIPWNLERITAPR; Artificial Sequence, Mimotope) [compound 43] | 70 | 226,000
50 (SIPWNLERITPPK; Artificial Sequence, Mimotope) [compound 50] | 66 | 158,000
4 (ITELSRWPNI) [compound 4] | 0 | –
11 (SGPWNLERITPPR; Artificial Sequence, Mimotope) [compound 11] | 54 | 81,000
58 (SVPWNLERTT; Artificial Sequence, Mimotope) [compound 58] | 73 | 116,000
8 (SVPWNLERIT; Artificial Sequence, Mimotope) [compound 8] | 62 | 197,000
33 (SIPWNLEKIT; Artificial Sequence, Mimotope) [compound 33] | 19 | 59,000
28 (SIPWNDERIT; Artificial Sequence, Mimotope) [compound 28] | 71 | 131,000
46 (SIPWNLERITPVR; Artificial Sequence, Mimotope) [compound 46] | 75 | 265,000
21 (SIPWSLERIT; Artificial Sequence, Mimotope) [compound 21] | 73 | 147,000
20 (SIPSNLERIT; Artificial Sequence, Mimotope) [compound 20] | 7 | 22,000

Substance | % Competition compared to the related control group [1] [%] | Median Titer Binding ELISA (ODmax/2) [2]
71 (VQPWNLERLQ; Artificial Sequence, Mimotope) [compound 71] | 72 | 184,000
48 (SIPWNLERITPNR; Artificial Sequence, Mimotope) [compound 48] | 70 | 186,000
32 (SIPWNLDRITPPR; Artificial Sequence, Mimotope) [compound 32] | 53 | 151,000
18 (SIPHNLERIT; Artificial Sequence, Mimotope) [compound 18] | 0 | 23,000
72 (VQPWSLERLL; Artificial Sequence, Mimotope) [compound 72] | 66 | 166,000
63 (SQPWNLERIQ; Artificial Sequence, Mimotope) [compound 63] | 66 | 167,000
38 (SIPWNLERAT; Artificial Sequence, Mimotope) [compound 38] | 77 | 149,000
35 (SIPWNLEDIT; Artificial Sequence, Mimotope) [compound 35] | 13 | 48,000
60 (SVPWNLERIQ; Artificial Sequence, Mimotope) [compound 60] | 61 | 222,000
45 (SIPWNLERITPAR; Artificial Sequence, Mimotope) [compound 45] | 74 | 184,000
64 (SIPWSLERLT; Artificial Sequence, Mimotope) [compound 64] | 46 | 164,000
22 (SIPWALERIT; Artificial Sequence, Mimotope) [compound 22] | 75 | 157,000
31 (SIPWNLARIT; Artificial Sequence, Mimotope) [compound 31] | 13 | 34,000
52 (SIPWNLERITPPL; Artificial Sequence, Mimotope) [compound 52] | 66 | 139,000
69 (SQPWSLERTL; Artificial Sequence, Mimotope) [compound 69] | 53 | 98,000
26 (SIPWNGERIT; Artificial Sequence, Mimotope) [compound 26] | 52 | 56,000
56 (VIPWNLERIQ; Artificial Sequence, Mimotope) [compound 56] | 47 | 166,000
3 (ERTKSDPGAQHREF) [compound 3] | 0 | –

Reference: US9999659B2, “Treatments using a peptide and/or vaccine” (AFFIRIS AG, priority 2012, dated 2018)
